What was measured:
[1] = test system: various types of cells; test: Transfection of various cell strains, GFP expression (Example 8); assay type: cell-based; conditions: COS7, HeLa-S3, A549, U2OS, SKOV3, Balb3T3, CHO, Jurkat, K562; 48 hours
Procedure: 4 hours after the addition, the medium was replaced (however, the medium was not replaced for Jurkat, K562). […] It should be noted that experimental conditions not described in the table conformed to those of the other examples.

[2] = test system: NHDF-ad cells; test: Multiple gene transfer, GFP expression (Example 7); assay type: cell-based, human; conditions: transfer on Day 1, 3, 5, observed Day 7
Procedure: pEGFP-C1 expressing a green fluorescent protein was used as a gene transfer plasmid, and NHDF-ad cells, which were normal […] cells derived from adult humans also used for production of iPS cells, were used as target cells. Lipoplexes were individually prepared using DL-U2. Then, gene transfer was performed multiple times.
(NHDF-ad cells: 2×10^4 cells/well·DMEM+10% FBS (Pe/St) 500 μl)
(i) A 20 mM Tris-HCl (pH 7.4) buffer was dispensed into tubes at 71 μl (for NP ratio=6).
(ii) 2.0 μg of plasmid DNA (pCAG-GFP) were added to each of the two tubes prepared in step (i) at 4 μl (2.0 μg), and the contents were stirred.
(iii) To the prepared plasmid DNA solution was added 75 μl of a DL-U2 liposome solution (N/P ratio=6), and the whole was thoroughly mixed using a vortex and incubated at room temperature for 30 minutes.
(iv) 50 μl of an Opti-MEM(R) I Reduced-Serum Medium was further added, and the whole was thoroughly mixed and allowed to stand at room temperature for 5 minutes.
(v) 100 μl per well of the DL-plasmid DNA complex solutions was individually added to one well, and the contents were mixed by shaking the plate so as to be homogeneous.
(vi) The cells were incubated at 37° C. in 5% CO2 for 4 hours, and the growth medium was replaced.
For the cells subjected to gene transfer operations on Day 1, the same gene transfer was performed on Day 3 and Day 5 as well.

[3] = test system: NHDF-ad cells; test: Flow cytometry of GFP fluorescence in treated cells; assay type: cell-based, human
[4] = test system: COS-7; test: Gene transfer (GFP expression, luciferase activity) versus commercial agents (Example 5); assay type: cell-based; conditions: COS-7 adherent cells; compared with Lipofectamine LTX and FuGENE HD
Procedure: (§1) pEGFP-C1 expressing a green fluorescent protein was used as a gene transfer plasmid; and adherent cells COS-7 and Hela-S3, and non-adherent cells K562, which were established cell lines, were used as target cells. Lipoplexes were individually prepared using DL-U2. Then, gene transfer was performed.
(COS7 cells: 2.0×10^4 cells/well·DMEM+10% FBS (Pe/St) 500 μl)
(§2) (i) A 20 mM Tris-HCl (pH 7.4) buffer was dispensed into three tubes at 35.5 μl (for NP ratio=6) for each of two tubes, and 23 μl (for NP ratio=8) for the remaining tube.
(§3) (ii) 1.0 μg of plasmid DNA (pCAG-GFP) was added to each of the three tubes prepared in step (i) at 2 μl (1.0 μg), and the contents were stirred.
(§4) (iii) A DL-U2 liposome solution was added to the three tubes prepared in step (ii) at 37.5 μl (N/P ratio=6) for each of two tubes, and 50 μl (N/P ratio=8) for the remaining tube.
(§5) (iv) 25 μl of an Opti-MEM (registered trademark) I Reduced-Serum Medium was further added, and the whole was thoroughly mixed and allowed to stand at room temperature for 5 minutes.
(v) 100 μl of the DL-plasmid DNA complex solution (N/P ratio=6) was added and mixed with the COS7 cells. […]
(§6) (vii) 48 hours later, luciferase activity was measured according to the protocol of the luciferase assay system (Promega, E1501) (relative values based on the activity of LTX defined as 1 were graphed).

[5] = test system: K562; test: Cytotoxic evaluation on gene transfer (Example 5); assay type: cell-based; conditions: compared with Lipofectamine LTX and FuGENE HD
[6] = test system: K562; test: Gene transfer (GFP expression, luciferase activity) versus commercial agents (Example 5); assay type: cell-based; conditions: K562 non-adherent cells; compared with Lipofectamine LTX and FuGENE HD
Procedure: as §1, §2, §3, §4, §5
50 μl of the DL-plasmid DNA complex solution (N/P ratio=8) was added and mixed with the K562 cells. […]
as §6

gene transfer activity [4]: excellent gene transfer activity
gene transfer activity [6]: excellent gene transfer activity
Compound: CCCCCCCC/C=C\CCCCCCCCN(CCCCCCCC/C=C\CCCCCCCC)CCC(=O)NCCN(CCC(=O)NCCN)CCC(=O)NCCN (racemic) [DL-G1-U2]
gene transfer into various types of cells [1]: allowed the gene to be efficiently transferred
gene transfer activity / gene expression after multiple gene transfer [2]: allowed the gene to be expressed most efficiently
fluorescence intensity of GFP expressed in the cells compared with DL-G1 [3]: about ten times higher
cytotoxicity [5]: lower cytotoxicity

From patent publication US8557875B2, “Gene transfer agent composition containing polyamidoamine dendron” (Public University Corporation Osaka Prefecture University, priority 2009, dated 2013)
